Legend:
Type in all cases: cell-based
Human RPE cells [1] = assay: TBHP oxidative stress-induced cell death, cell viability; conditions: FIG. 6, 0.6 μM compound preincubated 24 hours, then 300 μM TBHP 24 hours, p<0.0001
Method: (§1) Human RPE cells were preincubated with 0.6 μM of compound DH421 or DH381-2 for 24 hours and then exposed to 300 μM tert-butyl hydroperoxide (TBHP) to induce cell death for 24 hours. Protective effects on human RPE cells treated with DH421 and DH381-2. **** p<0.0001.

Human RPE cells [2] = assay: CellTox Green Cytotoxicity Assay; conditions: FIG. 10, 1 μM compound preincubated 24 hours
Method: Human RPE cells were preincubated with 1 μM of compound DH381-2 and DH421 for 24 hours. Cell toxicity was measured by CellTox Green Cytotoxicity Assay in human RPE cells after treatment with TBHP and compounds DH381-2 and DH421.

Human ARPE-19 cells [3] = assay: Cell viability on nitrite-modified extracellular matrix (ECM); conditions: FIG. 5, 1 μM, 3 μM, and 10 μM compound, seeded onto nitrite-modified ECM for 24 hours
Method: Immortalized human RPE (ARPE-19) cells were obtained from the ATCC, cultured, and maintained in DMEM (Invitrogen-Gibco, Life Technologies) containing 10% FBS, 100 IU/mL penicillin, 100 μg/mL streptomycin, and 100 μg/mL gentamicin (Invitrogen-Gibco, Life Technologies). These cells were incubated in a humidified atmosphere of 5% CO2 and 95% air at 37° C. ARPE-19 cells were grown on 24-well Transwell® permeable supports (Corning, Inc.) in 12-well plates or flat bottom 24-well plates for 6-8 weeks to allow the ECM to form. ARPE-19 cells were then removed by the addition of 20 mM ammonium hydroxide buffer for 20 min, and the ECM was washed with phosphate buffered saline (PBS). PBS was removed from the RPE-ECM plates and dried. Subsequently, 100 mM sodium nitrite was added to the ECM and incubated at 37° C. for 7 days. Plates were then washed with PBS and incubated with PBS for 4 hours. Finally, plates were washed with PBS to completely remove the nitrite. Cells are preincubated with drug for 24 hours and then seeded on nitrite-modified ECM for 24 hours. Cell viability was measured using RealTime-Glo MT assays (Promega) with a BioTek FLx800 fluorescence reader (Bio Tek, Winooski, VT). […]

Human RPE cells [4] = assay: as above; conditions: FIG. 8, 1 μM compound, seeded onto nitrite-modified ECM for 24 hours, p<0.05
Method: Human RPE cells were treated with 1 μM of compound DH421 or DH381-2 and then seeded onto nitrite-modified ECM and untreated (normal) ECM for 24 hours. Protective effects of compound DH421 or DH381-2 on RPE cells seeded onto nitrite-modified ECM. *p<0.05.

Human ARPE-19 cells [5] = assay: Blue light damage, cell viability (RealTime-Glo MT); conditions: FIG. 4, 0.6 μM compound preincubated 24 hours, then blue light 156.7 LUX for 36 hours
Method: Human ARPE-19 cells were plated in 96-well plates for 24 hours in DMEM supplemented with FBS and antibiotics. The cells were preincubated with drug for 24 hours and then exposed to blue light (156.7 LUX for 36 hours). Cell viability was measured after 36 hours of blue light exposure using RealTime-Glo MT assays (Promega) with a BioTek FLx800 fluorescence reader (Bio Tek, Winooski, VT).
Human ARPE-19 cells (CRL-2302; American Type Culture Collection) were preincubated with 0.6 μM of compound DH421 or DH381-2 for 24 hours and then exposed to blue light (156.7 LUX for 36 hours). Protective effect of compound DH421 or DH381-2 on human ARPE-19 cells exposed to blue light (156.7 LUX for 36 hours). * p<0.05, *** p<0.01.

Human ARPE-19 cells [6] = assay: TBHP oxidative stress-induced cell death, cell viability (RealTime-Glo MT); conditions: for cell viability after exposure to TBHP / protection from oxidative stress-induced cell death: p<0.0001; for protection from oxidative stress-induced cell death: FIG. 3, 0.6 μM compound preincubated 24 hours
Method: Immortalized human RPE cells (ARPE-19) obtained from the American Type Culture Collection (ATCC, Manassas, VA, USA) were cultured in Dulbecco's modified Eagle's medium (DMEM; Thermo Fisher Scientific, Waltham, MA) containing 10% fetal bovine serum (FBS), 100 IU/mL penicillin, 100 μg/mL streptomycin, 100 μg/mL gentamicin, and 2.5 μg/mL amphotericin B (Thermo Fisher Scientific).
Human ARPE-19 cells were plated in 96-well plates for 24 hours in DMEM supplemented with FBS and antibiotics. ARPE-19 cells were preincubated with either ciclopirox olamine (Sigma), compound 414 (Chemical Diversity, San Diego, CA), compound 434 (Chemical Diversity) or no compound for 24 hours and then exposed to varying concentrations of tert-butyl hydroperoxide (TBHP; Sigma-Aldrich, St. Louis, MO) the next day for 24 hours. Cell viability was measured the following day by RealTime-Glo™ MT cell viability assay (Promega, Madison, WI) using a BioTek FLx800™ fluorescence reader (BioTek, Winooski, VT).
Human ARPE-19 cells (CRL-2302; American Type Culture Collection) were preincubated with 0.9 μM of DH381-2 and DH421 for 24 hours and then exposed to 300 μM tert-butyl hydroperoxide (TBHP) to induce cell death for 24 hours.
Human ARPE-19 cells (CRL-2302; American Type Culture Collection) were preincubated with 0.9 μM of DH421 for 24 hours and then exposed to 250 μM tert-butyl hydroperoxide (TBHP) to induce cell death for 24 hours.
as §1, with “ARPE-19” for “RPE”, “(CRL-2302; American Type Culture Collection) with” for “were”

Human RPE cells [7] = assay: Blue light damage, cell viability; conditions: FIG. 7, 0.6 μM compound preincubated 24 hours, then blue light 156.7 LUX for 36 hours
Method: Human RPE cells were preincubated with 0.6 μM of compound DH421 or DH381-2 for 24 hours and then exposed to blue light (156.7 LUX for 36 hours). Protective effect of compound DH421 or DH381-2 on human RPE cells exposed to blue light (156.7 LUX for 36 hours). * p<0.05, *** p<0.01.

Human RPE cells [8] = assay: Mitochondrial function after TBHP (oxygen consumption rate, Seahorse XF analyzer); conditions: FIGS. 9A-9B, 1 μM compound preincubated 18 hours, then 300 μM TBHP 24 hours; for ATP production compared to TBHP-treated group: p<0.001
Method: Human RPE cells were preincubated with 1 μM of compound DH381-2 and DH421 for 18 hours and then treated with 300 μM tert-butyl hydroperoxide (TBHP) for 24 hours. Oxygen consumption rate (OCR) was determined by Seahorse XF analyzer to measure mitochondrial function.

[9] = FIG. 1, 0.9 μM compound preincubated 24 hours, then 300 μM TBHP 24 hours

Row | SMILES | protection from oxidative stress-induced cell death (Human RPE cells [1]) | cytotoxicity level (Human RPE cells [2]) | cell viability on nitrite-modified ECM (Human ARPE-19 cells [3]) | cell viability on nitrite-modified ECM (Human RPE cells [4]) | protection from blue light damage (Human ARPE-19 cells [5]) | cell viability after exposure to TBHP (Human ARPE-19 cells [6]; [9]) | protection from oxidative stress-induced cell death (Human ARPE-19 cells [6]; then 300 μM TBHP 24 hours) | protection from blue light damage (Human RPE cells [7]) | mitochondrial function (oxygen consumption rate) after oxidative stress (Human RPE cells [8]) | ATP production compared to TBHP-treated group (Human RPE cells [8]) | effect on cell growth suppression (Human ARPE-19 cells [6]; FIG. 2, 0.9 μM compound) | cell viability after exposure to TBHP (Human ARPE-19 cells [6]; FIG. 2, 0.9 μM compound preincubated 24 hours, then 250 μM TBHP 24 hours)
1 | Oc1ccc(Br)cc1-c1nc2ncccn2c1Nc1ccccn1 [DH381-2, 4-bromo-2-(3-(pyridin-2-ylamino)imidazo[1,2-a]pyrimidin-2-yl)phenol] | protected | not affected | enhanced | enhanced | protected | significantly increased cell viability | protected | protected | improved mitochondrial function | increased ATP production |  | 
2 | CCc1cccc(C)c1Nc1c(-c2cc(Br)ccc2O)nc2ccccn12 [DH421, 4-bromo-2-(3-((2-ethyl-6-methylphenyl)amino)imidazo[1,2-a]pyridin-2-yl)phenol] | protected | not affected | enhanced | enhanced | protected | significantly increased cell viability | protected | protected | improved mitochondrial function | increased ATP production | no effect on cell growth suppression | significantly increased cell viability
